Experimental data: PubChem BioAssay AID1259411 (Chemical Carcinogenesis Research Information System (CCRIS), 2018)
Calls of active or inactive are those of the source. The rule behind the calls is not given here.

Test system: rodent carcinogenicity bioassays, tumor incidence
Assay: CCRIS carcinogenicity studies
In short: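 Archive of carcinogenicity, mutagenicity, tumor promotion and tumor inhibition results drawn from journals, NCI reports and other sources, expert-reviewed; covers 1985-2011 and is no longer updated.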

## CN(C)c1ccc2nc3ccc(=[N+](C)C)cc-3sc2c1
Species: Mouse, Strain/Sex: B6C3F1/Female, Route: Oral, Dose: 0, 2.5, 12.5, 25 mg/kg 5 d per wk for 2 yr, Dose: 0, 2.5, 12.5, 25 mg/kg 5 d per wk for 2 yr, Tumor Site: Type of Lesion: Lymphatic system: Malignant lymphomas (6/50; 4/50; 9/50; 12/50) (Marginal increase)
  carcinogen call: equivocal
Species: Mouse, Strain/Sex: B6C3F1/Male, Route: Oral, Dose: 0, 2.5, 12.5, 25 mg/kg 5 d per wk for 2 yr, Dose: 0, 2.5, 12.5, 25 mg/kg 5 d per wk for 2 yr, Tumor Site: Type of Lesion: Small intestine: Carcinomas (0/50; 1/50; 2/50; 4/50), Adenomas or carcinomas (1/50; 2/50; 4/50; 6/50) (incidences not st, Tumor Site: Type of Lesion: Small intestine: Carcinomas (0/50; 1/50; 2/50; 4/50), Adenomas or carcinomas (1/50; 2/50; 4/50; 6/50) (incidences not st
  carcinogen call: active; positive (for lymphoma only at high does) (ntp describes results as some evidenc
Species: Rat, Strain/Sex: F344/Female, Route: Oral, Dose: 0, 5, 25, 50 mg/kg 5 d per wk for 2 yr, Dose: 0, 5, 25, 50 mg/kg 5 d per wk for 2 yr
  carcinogen call: inactive; negative
Species: Rat, Strain/Sex: F344/Male, Route: Oral, Dose: 0, 5, 25, 50 mg/kg 5 d per wk for 2 yr, Dose: 0, 5, 25, 50 mg/kg 5 d per wk for 2 yr, Tumor Site: Type of Lesion: Pancreas: Pancreatic islet adenomas (4/50; 9/50; 12/50; 8/50), Pancreatic islet adenomas or carcinomas (4/50, 9/50, 14/5, Tumor Site: Type of Lesion: Pancreas: Pancreatic islet adenomas (4/50; 9/50; 12/50; 8/50), Pancreatic islet adenomas or carcinomas (4/50, 9/50, 14/5
  carcinogen call: active; positive (statistically significant only at 25 mg/kg dose) (ntp describes as som

## Oc1ccccc1-c1ccccc1
Species: GUINEA PIG, Strain/Sex: HARTLEY/MALE, Route: ORAL, Dose: 0, 2% IN DIET (STUDY DURATION: 48 WK)
  carcinogen call: inactive; negative
Species: HAMSTER, Strain/Sex: SYRIAN/MALE, Route: ORAL, Dose: 0, 2% IN DIET (STUDY DURATION: 48 WK)
  carcinogen call: inactive; negative
Species: MOUSE, Strain/Sex: B6C3F1/FEMALE, Route: ORAL, Dose: 0, 0.5, 1, 2% IN DIET FOR 96 WK (STUDY DURATION: 104 WK), Dose: 0, 0.5, 1, 2% IN DIET FOR 96 WK (STUDY DURATION: 104 WK)
  carcinogen call: inactive; negative
Species: MOUSE, Strain/Sex: B6C3F1/FEMALE, Route: ORAL, Dose: 0, 0.5, 1, 2% IN THE DIET FOR 96 WK (STUDY DURATION: 104 WK), Dose: 0, 0.5, 1, 2% IN THE DIET FOR 96 WK (STUDY DURATION: 104 WK)
  carcinogen call: inactive; negative
Species: MOUSE, Strain/Sex: B6C3F1/MALE, Route: ORAL, Dose: 0, 0.5, 1, 2% IN DIET FOR 96 WK (STUDY DURATION: 104 WK), Dose: 0, 0.5, 1, 2% IN DIET FOR 96 WK (STUDY DURATION: 104 WK)
  carcinogen call: inactive; negative
Species: MOUSE, Strain/Sex: B6C3F1/MALE, Route: ORAL, Dose: 0, 0.5, 1, 2% IN THE DIET FOR 96 WK (STUDY DURATION: 104 WK), Dose: 0, 0.5, 1, 2% IN THE DIET FOR 96 WK (STUDY DURATION: 104 WK)
  carcinogen call: inactive; negative
Species: MOUSE, Strain/Sex: B6C3F1/MALE, Route: ORAL, Dose: 0, 2% IN DIET (STUDY DURATION: 48 WK)
  carcinogen call: inactive; negative
Species: MOUSE, Strain/Sex: CD-1/FEMALE, Route: DERMAL, Dose: 0, 55.5 MG/ANIMAL IN 0.1 ML ACETONE 3 D/WK FOR 102 WK
  carcinogen call: inactive; negative
Species: MOUSE, Strain/Sex: CD-1/MALE, Route: DERMAL, Dose: 0, 55.5 MG/ANIMAL IN 0.1 ML ACETONE 3 D/WK FOR 102 WK
  carcinogen call: inactive; negative
Species: RAT, Strain/Sex: F344/MALE, Route: ORAL, Dose: 0, 0.125, 0.25, 0.5, 1.0, 2.0, 4.0% IN DIET FOR 91 WK, Dose: 0, 0.125, 0.25, 0.5, 1.0, 2.0, 4.0% IN DIET FOR 91 WK, Tumor Site: Type of Lesion: KIDNEY: TRANSITIONAL CELL CARCINOMA, URINARY BLADDER: TRANSITIONAL CELL CARCINOMA
  carcinogen call: active; positive
Species: RAT, Strain/Sex: F344/MALE, Route: ORAL, Dose: 0, 0.625, 1.25, 2.5% IN PELLET DIET FOR STUDY DURATION (STUDY DURATION: 91 WK), Dose: 0, 0.625, 1.25, 2.5% IN PELLET DIET FOR STUDY DURATION (STUDY DURATION: 91 WK), Tumor Site: Type of Lesion: BLADDER: TRANSITIONAL CELL PAPILLOMA, TRANSITIONAL CELL CARCINOMA
  carcinogen call: active; positive
Species: RAT, Strain/Sex: F344/MALE, Route: ORAL, Dose: 0, 2% IN DIET (STUDY DURATION: 48 WK)
  carcinogen call: inactive; negative
Species: RAT, Strain/Sex: F344/MALE, Route: ORAL, Dose: 0, 2% IN DIET FOR 104 WK (STUDY DURATION: 104 WK), Tumor Site: Type of Lesion: BLADDER: CARCINOMA
  carcinogen call: active; positive

## CC(C)(c1ccc(O)cc1)c1ccc(O)cc1
Species: MOUSE, Strain/Sex: B6C3F1/FEMALE, Route: ORAL, Dose: 0, 5000, 10000 PPM IN DIET FOR 103 WK (STUDY DURATION: 103 WK), Dose: 0, 5000, 10000 PPM IN DIET FOR 103 WK (STUDY DURATION: 103 WK)
  carcinogen call: inactive; negative
Species: MOUSE, Strain/Sex: B6C3F1/MALE, Route: ORAL, Dose: 0, 1000, 5000 PPM IN DIET FOR 103 WK (STUDY DURATION: 103 WK), Dose: 0, 1000, 5000 PPM IN DIET FOR 103 WK (STUDY DURATION: 103 WK), Tumor Site: Type of Lesion: HEMATOPOIETIC SYSTEM: LYMPHOMA OR LEUKEMIA
  carcinogen call: equivocal
Species: Mouse, Strain/Sex: CD-1/Female (24/group); Route: Subcutaneous; Dose: 0; 10; 100; 1000 ug/kg in corn oil, once a day from days 1-5 of life; study duration 18 mo); Dose: 0; 10; 100; 1000 ug/kg in corn oil, once a day from days 1-5 of life; study duration 18 mo), Tumor Site: Type of Lesion: Uterus, leiomyoma (0/18; 1/23; 2/20; 1/16 [multiple lesions]), Tumor Site: Type of Lesion: Uterus, leiomyoma (0/18; 1/23; 2/20; 1/16 [multiple lesions])
  carcinogen call: inactive; negative (nonneoplastic and preneoplastic lesions observed in ovary/oviduct and
Species: RAT, Strain/Sex: F344/FEMALE, Route: ORAL, Dose: 0, 1000, 2000 PPM IN DIET FOR 103 WK (STUDY DURATION: 103 WK), Dose: 0, 1000, 2000 PPM IN DIET FOR 103 WK (STUDY DURATION: 103 WK), Tumor Site: Type of Lesion: HEMATOPOIETIC SYSTEM: LEUKEMIA
  carcinogen call: equivocal
Species: RAT, Strain/Sex: F344/MALE, Route: ORAL, Dose: 0, 1000, 2000 PPM IN DIET FOR 103 WK (STUDY DURATION: 103 WK), Dose: 0, 1000, 2000 PPM IN DIET FOR 103 WK (STUDY DURATION: 103 WK), Tumor Site: Type of Lesion: HEMATOPOIETIC SYSTEM: LEUKEMIA
  carcinogen call: equivocal
Species: Rat, Strain/Sex: Wistar-Furth/Female (?/group with maximum of 8 pups per dam), Route: Osmotic pump to dams, Dose: 0, 2.5, 25, 250, 1000 ug/kg bw/day from embryonic day 9 to postnatal day 1, study duration 50 or 95 postnatal days, Dose: 0, 2.5, 25, 250, 1000 ug/kg bw/day from embryonic day 9 to postnatal day 1, study duration 50 or 95 postnatal days, Tumor Site: Type of Lesion: Mammary gland, ductal hyperplasia
  carcinogen call: active; positive (significant increase at all dose levels at pnd 50; significant at 2.5

## CCOC(=O)Nc1cccc(OC(=O)Nc2ccccc2)c1
Species: Mouse, Strain/Sex: NMRI/Female (50/Group), Route: Oral, Dose: 0, 30, 150, 750 ppm in diet for 104 wk, Dose: 0, 30, 150, 750 ppm in diet for 104 wk
  carcinogen call: inactive; negative
Species: Mouse, Strain/Sex: NMRI/Male (50/Group), Route: Oral, Dose: 0, 30, 150, 750 ppm in diet for 104 wk, Dose: 0, 30, 150, 750 ppm in diet for 104 wk
  carcinogen call: inactive; negative
Species: Rat, Strain/Sex: Wistar KFM-Han/Female (50/Group), Route: Oral, Dose: 0, 60, 300, 1500 ppm in diet for 2 yr, Dose: 0, 60, 300, 1500 ppm in diet for 2 yr
  carcinogen call: inactive; negative
Species: Rat, Strain/Sex: Wistar KFM-Han/Male (50/Group), Route: Oral, Dose: 0, 60, 300, 1500 ppm in diet for 2 yr, Dose: 0, 60, 300, 1500 ppm in diet for 2 yr
  carcinogen call: inactive; negative
